# Experimental data: the supplement of paper PMC10307832
# Columns and labels:
# Experiment in all cases: relative viability (nuclei count vs DMSO), 5 days (fraction); higher = more cells survive
# [1] = compound: CC1=CC(=CC=C1)NC2=NC(=CS2)C3=CC=NC=C3 + Cc1nc(NC(=O)N2CCC[C@H]2C(N)=O)sc1-c1ccnc(C(C)(C)C(F)(F)F)c1 [Alpelisib] (partner 2 µM)
# Procedure, shortened: (§1)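 Lung cancer cell lines were pin-tool dosed in 1536-well plates on the day after seeding, with either a lone drug or a fixed anchor-drug dose plus five library-drug doses (not always all listed) in √10 steps. Nuclei were counted on 4× images after 5 days. Relative viability is the ratio of treated-well to vehicle-well nuclei counts, with each value a median of duplicate plates.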
# [2] = compound: CC1=CC(=CC=C1)NC2=NC(=CS2)C3=CC=NC=C3 + Cc1nc(Nc2ncc(C(=O)Nc3c(C)cccc3Cl)s2)cc(N2CCN(CCO)CC2)n1 [Dasatinib] (partner 0.075 µM)
# Procedure, shortened: as §1
# Masitinib + Foretinib = compound: Cc1ccc(NC(=O)c2ccc(CN3CCN(C)CC3)cc2)cc1Nc1nc(-c2cccnc2)cs1 [Masitinib] + COc1cc2c(Oc3ccc(NC(=O)C4(C(=O)Nc5ccc(F)cc5)CC4)cc3F)ccnc2cc1OCCCN1CCOCC1 [Foretinib] (partner 0.25 µM)
# Procedure, shortened: as §1
# Masitinib + Phenformin = compound: Cc1ccc(NC(=O)c2ccc(CN3CCN(C)CC3)cc2)cc1Nc1nc(-c2cccnc2)cs1 [Masitinib] + N=C(N)NC(=N)NCCc1ccccc1 [Phenformin] (partner 250 µM)
# Procedure, shortened: as §1
Cell Line,relative viability ([1]; first compound 0.08 µM),relative viability ([1]; first compound 0.253 µM),relative viability ([1]; first compound 0.8 µM),relative viability ([1]; first compound 2.53 µM),relative viability ([1]; first compound 8 µM),relative viability ([2]; first compound 0.08 µM),relative viability ([2]; first compound 0.253 µM),relative viability ([2]; first compound 0.8 µM),relative viability ([2]; first compound 2.53 µM),relative viability ([2]; first compound 8 µM),relative viability (Masitinib + Foretinib; first compound 0.01 µM),relative viability (Masitinib + Foretinib; first compound 0.03162 µM),relative viability (Masitinib + Foretinib; first compound 0.1 µM),relative viability (Masitinib + Foretinib; first compound 0.3162 µM),relative viability (Masitinib + Foretinib; first compound 1 µM),relative viability (Masitinib + Phenformin; first compound 0.03162 µM),relative viability (Masitinib + Phenformin; first compound 0.3162 µM),relative viability (Masitinib + Phenformin; first compound 1 µM),relative viability (Masitinib + Phenformin; first compound 0.01 µM),relative viability (Masitinib + Phenformin; first compound 0.1 µM)
NCI-H3122,0.724,0.794,0.843,1.01,0.923,0.78,0.821,1.05,0.819,0.77,0.89,1,1.05,1.01,0.887,0.396,0.315,0.312,,
PC-3 [JPC-3],0.95,0.939,0.845,0.875,0.84,0.974,0.95,0.881,0.87,0.939,1.03,0.98,1.02,1.02,1,0.429,0.46,0.37,0.47,0.47
PC-14,0.942,0.988,0.851,0.989,0.94,0.237,0.247,0.27,0.225,0.178,0.809,0.831,0.857,0.957,0.949,0.633,0.507,0.506,0.458,0.572
RERF-LC-KJ,1.01,0.83,0.773,0.715,0.654,0.533,0.694,0.64,0.573,0.515,0.734,0.883,0.987,0.746,0.797,0.451,0.447,0.35,0.387,0.438
SK-LU-1,0.955,0.934,0.617,0.992,0.852,0.144,0.201,,0.219,0.224,0.803,0.815,0.95,0.945,0.931,0.466,0.687,0.497,0.488,0.55
SK-MES-1,0.626,0.862,0.893,0.853,0.848,0.276,0.256,0.327,0.279,0.235,1,0.861,1.1,0.572,0.841,0.691,0.659,0.512,0.657,0.686
SW 1573,0.746,0.744,0.593,0.732,0.625,0.612,0.369,0.612,0.603,0.432,0.765,0.974,0.97,0.784,0.865,0.344,0.354,0.383,0.351,0.341
